Data on 29 compounds can be found in patent publication US20160375006A1, “USES OF PARALOG-SELECTIVE INHIBITORS OF GSK3 KINASES” (priority 2012, published 2016).

One may read the IC50 as the concentration at which inhibition is half-maximal. Read a low IC50 as greater potency in that assay.

Structures are written as SMILES. Where two headings read alike, the source gives them in different places.

The target in assay [1] is T1, GSK3α (Homo sapiens, UniProt P49840). Particulars: GSK3α over GSK3β.
T1 sequence (P49840 whole entry): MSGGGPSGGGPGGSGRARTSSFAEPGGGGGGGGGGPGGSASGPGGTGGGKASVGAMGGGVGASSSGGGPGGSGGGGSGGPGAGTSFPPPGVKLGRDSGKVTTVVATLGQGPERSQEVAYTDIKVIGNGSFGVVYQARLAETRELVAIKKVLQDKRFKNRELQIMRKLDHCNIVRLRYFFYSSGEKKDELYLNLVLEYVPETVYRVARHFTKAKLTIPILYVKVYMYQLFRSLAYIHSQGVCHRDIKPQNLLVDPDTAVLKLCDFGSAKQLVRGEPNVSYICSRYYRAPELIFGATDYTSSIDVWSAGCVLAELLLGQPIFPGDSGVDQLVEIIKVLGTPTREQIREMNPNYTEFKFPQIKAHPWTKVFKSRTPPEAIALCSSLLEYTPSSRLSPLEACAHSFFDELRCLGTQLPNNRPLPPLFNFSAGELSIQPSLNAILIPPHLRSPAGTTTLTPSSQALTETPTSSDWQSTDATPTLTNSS
Protocol: (§1) Reactions were terminated by the addition of 10 mM EDTA. Substrate and product were separated electrophoretically and fluorescence intensity of the substrate and product was determined by Labchip EZ Reader II (Caliper Life Sciences, MA). The kinase activity was measured as percent conversion. The reactions were performed in duplicate for each sample. […] The results were analyzed by Genedata Assay Analyzer. The percent inhibition was plotted against the compound concentration and the IC50 value was determined from the logistic dose-response curve fitting.
A further assay concerns the target GSK3β (Homo sapiens, UniProt P49841). Nature of the assay: biochemical.
The target in assay [2] is T1, GSK3α. Nature of the assay: biochemical.
Protocol: as §1

Sequence of GSK3β (P49841 whole entry): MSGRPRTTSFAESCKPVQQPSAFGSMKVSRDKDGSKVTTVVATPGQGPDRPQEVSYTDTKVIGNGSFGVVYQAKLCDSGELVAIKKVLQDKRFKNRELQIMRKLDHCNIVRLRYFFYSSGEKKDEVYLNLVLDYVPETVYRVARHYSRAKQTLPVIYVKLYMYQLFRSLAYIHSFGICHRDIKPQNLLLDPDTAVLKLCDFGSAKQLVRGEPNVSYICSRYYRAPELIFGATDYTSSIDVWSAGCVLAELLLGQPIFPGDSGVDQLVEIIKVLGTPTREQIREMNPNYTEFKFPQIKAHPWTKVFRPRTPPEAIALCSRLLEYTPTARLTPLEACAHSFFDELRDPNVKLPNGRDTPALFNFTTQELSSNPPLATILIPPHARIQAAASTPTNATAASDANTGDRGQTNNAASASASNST
Protocol for GSK3β: as §1

Consider `CC1(C)CC(=O)C2=C(C1)Nc1n[nH]cc1[C@]2(C)c1cccc(F)c1` (stereo in doubt) [Compound 202], for which the GSK3α fold selectivity at GSK3α [1] (Caliper assay) came to 2.7 fold. Moreover, the values for the 50% inhibitory concentration (IC50) against GSK3β and against GSK3α [2] were 1240 nM and 465 nM, respectively.

At GSK3α [1] (Caliper assay), `CC1(C)CC(=O)C2=C(C1)Nc1n[nH]cc1[C@@]2(C)c1cccc(F)c1` (stereo in doubt) [Compound 203] displayed a GSK3α fold selectivity of 3.0 fold. Further, the IC50 came out at 28900 nM against GSK3β and 9600 nM against GSK3α [2].

`CC1(C)CC(=O)C2=C(C1)Nc1n[nH]cc1[C@]2(C)c1cccc(Cl)c1` (stereo in doubt) [Compound 204]: the GSK3α fold selectivity at GSK3α [1] (Caliper assay) amounted to 4.7 fold. For the same compound, the IC50 on GSK3β was 173 nM; against GSK3α [2] it was 37 nM.

`CC1(C)CC(=O)C2=C(C1)Nc1n[nH]cc1[C@@]2(C)c1cccc(Cl)c1` (stereo in doubt) [Compound 205] came in with a GSK3α fold selectivity at GSK3α [1] (Caliper assay) of 7.1 fold. The IC50 on GSK3β is 33400 nM; at GSK3α [2] it was 4720 nM.

Regarding `CC1(C)CC(=O)C2=C(C1)Nc1n[nH]cc1[C@]2(C)c1cccc(C(F)(F)F)c1` (stereo in doubt) [Compound 207], the GSK3α fold selectivity on GSK3α [1] (Caliper assay) turned out to be 7.0 fold. Moreover, the values for the IC50 against GSK3β and on GSK3α [2] were 14 nM and 2 nM, respectively.

`CC1(C)CC(=O)C2=C(C1)Nc1n[nH]cc1[C@@]2(C)c1cccc(C(F)(F)F)c1` (stereo in doubt) [Compound 208] had a GSK3α fold selectivity on GSK3α [1] (Caliper assay) of 6.4 fold. In addition, the half-inhibitory concentration (IC50) against GSK3β came to 1450 nM; against GSK3α [2] it was 225 nM.

In turn, `CC1(C)CC(=O)C2=C(C1)Nc1n[nH]cc1[C@]2(C)c1cccc(C#N)c1` (stereo in doubt) [Compound 209] yielded a GSK3α fold selectivity on GSK3α [1] (Caliper assay) of 5.0 fold. Moreover, the half-inhibitory concentration (IC50) on GSK3β is 30 nM; on GSK3α [2] it was 6 nM.

For `CC1(C)CC(=O)C2=C(C1)Nc1n[nH]cc1[C@@]2(C)c1cccc(C#N)c1` (stereo in doubt) [Compound 210], the GSK3α fold selectivity on GSK3α [1] (Caliper assay) is given as 3.8 fold. Besides, the half-inhibitory concentration (IC50) against GSK3β amounted to 8860 nM; on GSK3α [2] it was 2350 nM.

Compound `CC[C@@]1(c2cccc(F)c2)C2=C(CC(C)(C)CC2=O)Nc2n[nH]cc21` (stereo in doubt) [Compound 214] returned a GSK3α fold selectivity on GSK3α [1] (Caliper assay) of 6.7 fold. Moreover, the values for the concentration for half-maximal inhibition (IC50) on GSK3β and at GSK3α [2] were 388 nM and 58 nM, respectively.

`CC[C@]1(c2cccc(F)c2)C2=C(CC(C)(C)CC2=O)Nc2n[nH]cc21` (stereo in doubt) [Compound 215]: the GSK3α fold selectivity on GSK3α [1] (Caliper assay) is recorded as over 3.5 fold. Also, the IC50 on GSK3β is over 33000 nM; at GSK3α [2], 9550 nM.

Take `CC[C@@]1(c2cc(F)cc(F)c2)C2=C(CC(C)(C)CC2=O)Nc2n[nH]cc21` (stereo in doubt) [Compound 216]: on GSK3α [1] (Caliper assay), the GSK3α fold selectivity came to 9.0 fold. Besides, the IC50 is 4040 nM against GSK3β and 450 nM on GSK3α [2].

Compound `CC[C@@]1(c2cccc(Cl)c2)C2=C(CC(C)(C)CC2=O)Nc2n[nH]cc21` (stereo in doubt) [Compound 219] came in with a GSK3α fold selectivity on GSK3α [1] (Caliper assay) of 8.8 fold. For the same compound, the IC50 against GSK3β was determined as 79 nM; against GSK3α [2], 9 nM.

At GSK3α [1] (Caliper assay), `CC[C@]1(c2cccc(Cl)c2)C2=C(CC(C)(C)CC2=O)Nc2n[nH]cc21` (stereo in doubt) [Compound 220] registered a GSK3α fold selectivity of 6.8 fold. The 50% inhibitory concentration (IC50) at GSK3β was determined as 24400 nM; at GSK3α [2], 3610 nM.

On GSK3α [1] (Caliper assay), `CC[C@@]1(c2cc(Cl)cc(Cl)c2)C2=C(CC(C)(C)CC2=O)Nc2n[nH]cc21` (stereo in doubt) [Compound 221] gave a GSK3α fold selectivity of 8.9 fold. Moreover, the IC50 is 929 nM against GSK3β and 104 nM against GSK3α [2].

In the case of `CC[C@]1(c2cc(Cl)cc(Cl)c2)C2=C(CC(C)(C)CC2=O)Nc2n[nH]cc21` (stereo in doubt) [Compound 222], the GSK3α fold selectivity on GSK3α [1] (Caliper assay) turned out to be 6.4 fold. Further, the IC50 against GSK3β came out at 11300 nM; against GSK3α [2] it was 1750 nM.

At GSK3α [1] (Caliper assay), `CC[C@@]1(c2cccc(C(F)(F)F)c2)C2=C(CC(C)(C)CC2=O)Nc2n[nH]cc21` (stereo in doubt) [Compound 223] showed a GSK3α fold selectivity of 7.5 fold. In addition, the IC50 turned out to be 15 nM at GSK3β and 2 nM on GSK3α [2].

In turn, `CC[C@]1(c2cccc(C(F)(F)F)c2)C2=C(CC(C)(C)CC2=O)Nc2n[nH]cc21` (stereo in doubt) [Compound 224] came in with a GSK3α fold selectivity on GSK3α [1] (Caliper assay) of 5.3 fold. Further, the IC50 against GSK3β is 20500 nM; on GSK3α [2] it was 3900 nM.

On to `CC[C@]1(c2cccc(C(C)(C)C)c2)C2=C(CC(C)(C)CC2=O)Nc2n[nH]cc21` (stereo in doubt) [Compound 227], for which the GSK3α fold selectivity at GSK3α [1] (Caliper assay) is listed as 2.3 fold. Further, the IC50 against GSK3β was 8350 nM; at GSK3α [2], 3630 nM.

In turn, `CCC[C@@]1(c2ccccc2)C2=C(CC(C)(C)CC2=O)Nc2n[nH]cc21` (stereo in doubt) [Compound 229] gave a GSK3α fold selectivity on GSK3α [1] (Caliper assay) of 1.9 fold. For the same compound, the IC50 at GSK3β was 1890 nM; against GSK3α [2], 970 nM.

On GSK3α [1] (Caliper assay), `CC(C)[C@@]1(c2ccccc2)C2=C(CC(C)(C)CC2=O)Nc2n[nH]cc21` (stereo in doubt) [Compound 232] showed a GSK3α fold selectivity of 4.4 fold. The IC50 against GSK3β came out at 4400 nM; against GSK3α [2], 1010 nM.

In turn, `CC(C)[C@]1(c2ccccc2)C2=C(CC(C)(C)CC2=O)Nc2n[nH]cc21` (stereo in doubt) [Compound 233] returned a GSK3α fold selectivity at GSK3α [1] (Caliper assay) of 1.6 fold. Further, the values for the IC50 at GSK3β and against GSK3α [2] were 7290 nM and 4540 nM, respectively.

Turning to `CC[C@@]1(c2ccccc2)C2=C(CC3(CCCCC3)CC2=O)Nc2n[nH]cc21` (stereo in doubt) [Compound 234], the GSK3α fold selectivity at GSK3α [1] (Caliper assay) is 6.4 fold. In addition, the IC50 against GSK3β was found to be 1030 nM; at GSK3α [2], 160 nM.

Consider `CC[C@@]1(c2ccccc2)C2=C(CC3(COC3)CC2=O)Nc2n[nH]cc21` (stereo in doubt) [Compound 237], for which, at GSK3α [1] (Caliper assay), the GSK3α fold selectivity was 4.2 fold. Further, the figures for the IC50 against GSK3β and against GSK3α [2] were 4850 nM and 1150 nM, respectively.

The compound `CC[C@@]1(c2ccccc2)C2=C(CC(C)(C)CC2=O)Nc2n[nH]c(F)c21` (stereo in doubt) [Compound 239] showed a GSK3α fold selectivity on GSK3α [1] (Caliper assay) of 9.6 fold. In addition, the IC50 against GSK3β is 1440 nM; against GSK3α [2] it was 150 nM.

Regarding `CC[C@]1(c2ccccc2)C2=C(CC(C)(C)CC2=O)Nc2n[nH]c(F)c21` (stereo in doubt) [Compound 240], at GSK3α [1] (Caliper assay), the GSK3α fold selectivity is recorded as over 2.7 fold. For the same compound, the IC50 at GSK3β was over 33000 nM; against GSK3α [2] it was 12300 nM.

As to `CC[C@@]1(c2ccccc2)C2=C(CC(C)(C)CC2=O)Nc2n[nH]c(C3CC3)c21` (stereo in doubt) [Compound 245], the GSK3α fold selectivity on GSK3α [1] (Caliper assay) turned out to be 1.1 fold. Also, the concentration for half-maximal inhibition (IC50) amounted to 31 nM against GSK3β and 28 nM at GSK3α [2].

`CC[C@]1(c2ccccc2)C2=C(CC(C)(C)CC2=O)Nc2n[nH]c(C3CC3)c21` (stereo in doubt) [Compound 246] came in with a GSK3α fold selectivity at GSK3α [1] (Caliper assay) of 1.2 fold. For the same compound, the IC50 amounted to 7500 nM at GSK3β and 6370 nM on GSK3α [2].

At GSK3α [1] (Caliper assay), `CCC1(CC)C2=C(CC(C)(C)CC2=O)Nc2n[nH]c(C)c21` [Compound 100] came in with a GSK3α fold selectivity of 7.7 fold. Further, the IC50 came out at 2910 nM on GSK3β and 380 nM against GSK3α [2].

`Cc1[nH]nc2c1[C@@](C)(c1ccccc1)C1=C(CC(C)(C)CC1=O)N2` [Compound 124] returned a GSK3α fold selectivity on GSK3α [1] of 3.7 fold. Also, the IC50 at GSK3β is 5000 to 30000 nM; on GSK3α [2], 1000 to 5000 nM.
